Results: patent publication US10777299B2, “Systems and methods for matching oncology signatures” (THE TRUSTEES OF COLUMBIA UNIVERSITY IN THE CITY OF NEW YORK, priority 2015, dated 2020)

What was measured:
[1] = tested on: rectal neuroendocrine tumor metastasis (NET-MET) tumor checkpoint; test: Drug-induced VIPER-inferred protein activity signatures in H-STS cells versus NET-MET checkpoint; type: cell-based, human; conditions: H-STS cell line
Excerpt: Drug MoA information was inferred using a NET liver metastasis-derived cell line (H-STS), which recapitulated the tumor checkpoint inferred from patient's samples (FIG. 6A).
Drug-induced VIPER-inferred protein activity signatures were obtained for a few drugs including entinostat. […] Drug MoA information was inferred using a NET liver metastasis-derived cell line (H-STS), which recapitulated the tumor checkpoint inferred from patient's samples, as shown in FIG. 6A.

[2] = tested on: patient-0 metastasis checkpoint MRs; test: OncoTreat: VIPER-inferred MR reversal after compound perturbation of H-STS cells, patient-0 MRs; type: cell-based, human; conditions: H-STS cell perturbation, FIG. 10A
Method: (§1) To assess the ability of these compounds to induce Tumor Checkpoint collapse (i.e., global inversion of patient-derived MR activity pattern), gene expression profiles were generated at 6 h and 24 h following perturbation of H-STS cells with two sub-lethal compound concentrations, the 72 h IC20 and 1/10th of that concentration in duplicate. The 24 h time point was considered more informative for long term response. These were produced by 30M SE read Illumina TruSeq profiling of RNA purified from treated cells as well as from cells treated with control media (DMSO). This ensured that the highest compound concentration can be tested that would not induce cell death processes and would thus faithfully recapitulate the compound mechanism of action (MoA) rather than the mechanisms and programs associated with cell demise. While in vivo endpoint phenotypes (e.g., tumor viability) are not effectively recapitulated in 2D cultures in vitro, compound MoA is reasonably well-recapitulated in both contexts. One aim can be to identify compounds capable of inverting MR activity signature in vitro in a relatively faithful model of the tumor regulatory context, to assess whether these compounds would have activity in vivo.
(§2) Drug signatures were analyzed with VIPER to assess the change in protein activity before and after the perturbation. Specifically, RX-GES were generated by differential expression of compound-treated vs. control-vehicle-treated cells at all time points and concentrations and analyzed with VIPER against the EP-NET interactome. This ranked all 5,602 regulatory proteins represented in the interactome from the one whose activity was most inhibited to the one whose activity was most increased following drug perturbation. An aREA analysis of patient samples that were well represented by the H-STS xenograft model was performed to assess enrichment of metastatic progression MRs in proteins whose activity was most inverted following drug perturbation. Since validation of these predictions was performed in H-STS mouse xenograft models, the analysis was limited to each NET-MET MRs that were recapitulated in the H-STS xenograft. […] Rather they allow optimal tuning of the results to available in vitro and in vivo models for optimal design of validation assays. Thus, the OncoTreat methodology uses the ability to prioritize small molecule compounds that optimally reverse a patient-specific MR activity signature.
FIG. 15 depicts the enrichment of the top 50 most activated (shown in red in the enrichment plots) and the top 50 most deactivated (shown in blue) proteins in patient 0 on the protein activity signature induced by each compound perturbation in the H-STS cell line. […] The colored bar indicates the tissue of origin for each of the evaluated tumors. […]

[3] = tested on: H-STS xenograft checkpoint MRs; test: OncoTreat: VIPER-inferred MR reversal after compound perturbation of H-STS cells, xenograft MRs; type: cell-based, human; conditions: H-STS cell perturbation
Method: as §1, §2
FIG. 15 depicts the enrichment of the top 50 most activated (shown in red in the enrichment plots) and the top 50 most deactivated (shown in blue) proteins in patient 0 on the protein activity signature induced by each compound perturbation in the H-STS cell line. […] The colored bar indicates the tissue of origin for each of the evaluated tumors.

H-STS xenograft [4] = test: H-STS xenograft tumor growth, Champions Oncology (TGI, RECIST, TR); type: in vivo, mice; conditions: for % TGI: H-STS xenograft in NOD-SCIDS mice, treated 25 days; for effect on H-STS xenograft tumor growth (FIG. 4B): H-STS xenograft models; for RECIST PD/SD/PR/CR: number of mice per response class; for % TR (tumor regression): H-STS xenograft
Method: All test agents were formulated according to manufacturer's specifications. Beginning Day 0, tumor dimensions were measured twice weekly by digital caliper and data, including individual and mean estimated tumor volumes (Mean TV±SEM), were recorded for each group. Tumor volume was calculated using the formula: […].
At study completion, percent tumor growth inhibition (% TGI) values were calculated and reported for each treatment group (T) versus control (C) using initial (i) and final (f) tumor measurements by the formula: % TGI=[1−(Tf−Ti)/(Cf−Ci)]×100. Individual mice reporting a tumor volume >120% of the Day 0 measurement were considered to have progressive disease (PD). Individual mice with neither sufficient shrinkage nor sufficient tumor volume increases are considered to have stable disease (SD). Individual mice reporting a tumor volume ≤70% of the Day 0 measurement for two consecutive measurements over a seven day period were considered partial responders (PR). If the PR persisted until study completion, percent tumor regression (% TR) was determined using the formula: % TR=(1−Tf/Ti)×100; a mean value was calculated for the entire treatment group. Individual mice lacking palpable tumors for two consecutive measurements over a seven day period were classified as complete responders (CR). All data collected in this study were managed electronically and stored on a redundant server system.
(§3) In vivo validation in NOD-SCIDS mice xenografts established by subcutaneous injection of H-STS cells was first conducted at Champions Oncology and then independently confirmed in the mouse hospital facility at Columbia University. Mice were enrolled in treatment arms when tumor size reached 250 mm^3 and were treated for 25 days. Tumor size was measured twice weekly by digital caliper, see methods.

H-STS xenograft [5] = test: H-STS xenograft tumor growth, follow-up studies at Columbia; type: in vivo, mice; conditions: mean of 8 animals
Method: as §3
This is in line with the poor effect of Bardoxolone methyl, I-BET151 and Bortezomib on xenograft tumor growth, and the strong abrogation elicited by Entinostat (FIGS. 10B and 10C). In summary, while the effect of the Entinostat, I-BET151 and Bardoxolone methyl on the reversal of patient-0 checkpoint activity inferred from the in vitro H-STS perturbation assay was confirmed in the xenograft model, only Entinostat reverted the activity of the H-STS xenograft checkpoints and abrogated tumor growth (FIG. 10).
FIG. 10A depicts enrichment of patient-0 metastasis checkpoint MRs on the protein activity signatures induced by 6 selected compounds in the H-STS cells. FIGS. 10B and 10C depict growth curves for the H-STS xenograft while treated by vehicle control, and each of the 6 selected compounds. Curves show tumor volume for individual animals (FIG. 10B) or the mean±SEM of 8 animals (FIG. 10C). FIG. 10D depicts enrichment of patient-0 metastasis checkpoint on the protein activity signatures induced by 4 selected compounds in the H-STS xenograft. FIG. 10E depicts enrichment of H-STS xenograft checkpoint on the protein activity signatures induced by 4 selected compounds in the H-STS xenograft.

[6] = tested on: patient-0 checkpoint protein activity; test: Xenograft transcriptome analysis after drug administration, patient-0 checkpoint; type: in vivo, mice; conditions: xenograft transcriptome 3 hours after 3rd drug administration
[7] = tested on: H-STS xenograft checkpoint; test: Xenograft transcriptome analysis after drug administration, H-STS xenograft checkpoint; type: in vivo, mice; conditions: xenograft transcriptome 3 hours after 3rd drug administration

`O=C(/C=C/c1cccc(S(=O)(=O)Nc2ccccc2)c1)NO` [Belinostat] was tested, and the “reverting the NET-MET tumor checkpoint (FIG. 4A)” value [1] was “not affecting NET-MET checkpoint”, the “reversal of patient-0 MRs (in words)” value [2] was “no significant reversal” and the “reversal of xenograft MRs (in words)” value [3] was “no significant reversal”. For the same compound, the “% TGI” value (H-STS xenograft [4]; 20 mg (text: 20 mg/kg/dose)) was 8%, the “% TGI” value (H-STS xenograft [4]; 20 mg (text: 20 mg/kg/dose), listed as PDX101) was 8% and the “% TGI” value (H-STS xenograft [4]; 40 mg) was −55%. The “effect on H-STS xenograft tumor growth (FIG. 4B)” value (H-STS xenograft [4]) was “did not abrogate tumor growth”, the “RECIST PD/SD/PR/CR” value (H-STS xenograft [4]; 20 mg) was 3/0/0/0 and the “RECIST PD/SD/PR/CR” value (H-STS xenograft [4]; 40 mg) was 3/0/0/0.

In the case of `CC(C)C[C@H](NC(=O)[C@H](Cc1ccccc1)NC(=O)c1cnccn1)B(O)O` [Bortezomib], the “xenograft tumor growth versus vehicle control (FIG. 10C)” value (H-STS xenograft [5]) is reported as “no significant difference” and the “inhibition of patient-0 checkpoint protein activity in xenograft (FIG. 10D)” value (shortened to “inhibition … (FIG. 10D)”) [6] is reported as “no effect”.

For `Nc1ccccc1NC(=O)c1ccc(CNC(=O)OCc2cccnc2)cc1` [Entinostat], the “xenograft tumor growth versus vehicle control (FIG. 10C)” value (H-STS xenograft [5]) was “complete tumor growth abrogation”, the “reverting the NET-MET tumor checkpoint (FIG. 4A)” value [1] was “most potent agent” and the “reversal of patient-0 MRs (in words)” value [2] was “significantly abrogating”. The “reversal of patient-0 MRs (in words)” value ([2]; listed as entinostat) was “most significant reversal”, the “reversal of xenograft MRs (in words)” value [3] was “significantly abrogating” and the “reversal of xenograft MRs (in words)” value ([3]; listed as entinostat) was “most significant reversal”. For the same compound, the “inhibition of the H-STS xenograft checkpoint in xenograft (FIG. 10E)” value [7] was “significant inhibition”, the “drug toxicity / animal deaths” value (H-STS xenograft [4]; 100 mg (text: 100 mg/kg/dose), one week into the test) was “toxic” and the “% TGI” value (H-STS xenograft [4]; 25 mg (text: 25 mg/kg/dose)) was 112%. For the same compound, the “% TGI” value (H-STS xenograft [4]; 25 mg (text: 25 mg/kg/dose), listed as MS-27-275) was 112%, the “% TGI” value (H-STS xenograft [4]; 50 mg (50 mg/kg/dose)) was 110% and the “% TGI” value (H-STS xenograft [4]; 50 mg (50 mg/kg/dose), listed as MS-27-275) was 110%. The “effect on H-STS xenograft tumor growth (FIG. 4B)” value (H-STS xenograft [4]) was “abrogated completely tumor growth”, the “% TR (tumor regression)” value (H-STS xenograft [4]; 25 mg (text: 25 mg/kg/dose)) was 68% and the “% TR (tumor regression)” value (H-STS xenograft [4]; 50 mg (50 mg/kg/dose)) was 58%. For the same compound, the “% TR (tumor regression)” value (H-STS xenograft [4]; 100 mg (text: 100 mg/kg/dose), single surviving animal) was 49%, the “RECIST PD/SD/PR/CR” value (H-STS xenograft [4]; 25 mg) was 0/0/3/0 and the “RECIST PD/SD/PR/CR” value (H-STS xenograft [4]; 50 mg) was 0/0/3/0. The “RECIST PD/SD/PR/CR” value (H-STS xenograft [4]; 100 mg) was 0/0/1/0 and the “inhibition … (FIG. 10D)” value [6] was “strong inhibition”.

For `COc1cc2c(cc1-c1c(C)noc1C)ncc1[nH]c(=O)n([C@H](C)c3ccccn3)c12` [I-BET151], the “xenograft tumor growth versus vehicle control (FIG. 10C)” value (H-STS xenograft [5]) was “no significant difference”, the “reversal of patient-0 MRs (in words)” value [2] was “significantly abrogating” and the “reversal of xenograft MRs (in words)” value [3] was “significantly abrogating”. For the same compound, the “inhibition … (FIG. 10D)” value [6] was “strong inhibition”.

`O=C1NC(=O)[C@@H](c2cn3c4c(cccc24)CCC3)[C@@H]1c1c[nH]c2ccccc12` [Tivantinib] was tested, and the “% TGI” value (H-STS xenograft [4]; 50 mg (50 mg/kg/dose)) was −46%, the “% TGI” value (H-STS xenograft [4]; 100 mg (text: 100 mg/kg/dose)) was 28% and the “% TGI” value (H-STS xenograft [4]; 100 mg (text: 100 mg/kg/dose), listed as ARQ197) was 28%. For the same compound, the “% TGI” value (H-STS xenograft [4]; 200 mg (text: 200 mg/kg/dose)) was 43% and the “% TGI” value (H-STS xenograft [4]; 200 mg (text: 200 mg/kg/dose), listed as ARQ197) was 43%.
